The target in experiment [1] is Chk2 (Homo sapiens, UniProt O96017). To be noted: expressed and purified Chk2; cited from earlier work.
Experiment [2] concerns prostate carcinoma PC3 cells. Briefly: Survivin expression after DNA damage, Western blotting. Type of experiment: cell-based, human. The note with it: analyzed after 12 hours. On the procedure: (§1) Tumor cell types were exposed to ionizing radiation at doses ranging between 5-10 Gray (Gy) using a ^137Cs source (Gammacell 40), or, alternatively, treated with adriamycin (0-100 nM, Sigma). Cells were harvested after 2-48 h, and analyzed by Western blotting. Antibodies were used having affinities for; i) survivin (1:1000, Novus Biologicals); ii) Chk2 (1:500; Upstate Biotechnology); iii) cytochrome c (1:100; BD Biosciences-Pharmingen); iv) COX-IV (1:500; BD Biosciences-Clontech); v) caspase-3 (1:1000, Cell Signaling Technology); vi) cleaved caspase-3 (1:1000, Cell Signaling Technology); vii) cyclin B1 (1:1000, GNS1, Santa Cruz Biotechnology, Inc.); viii) XIAP (1:1000; Transduction Laboratories); xi) β-actin (1:5000, clone AC-15, A5441; Sigma-Aldrich); and xii) Thr^68-phosphorylated Chk2 (Cell Signaling Technology).
For orientation: In western blotting, separated proteins are transferred to a membrane and probed.

Experiment [3] concerns HCT116 clones #102 and #202. As to the kind of experiment: Xenograft tumor model, HCT116 clones conditionally expressing Chk2-DN. It counts as in vivo, mice. On the procedure: All examples involving animals were approved by an Institutional Animal Care and Use Committee. […] Approximately 2.5×10^6 cells were injected into each hindlimb flank of 6-8 week old female immunocompromised CB17 SCID/beige mice (i.e., thereby generating 2 tumors/mouse). […] Tumor growth was monitored with a caliper according to the formula ½ [length (mm)]×[width (mm)]^2. At the end of the experiment, tumors were excised, and frozen sections from the various groups were stained with control IgG or a FITC-conjugated antibody to HA, and analyzed by fluorescence microscopy.

For experiment [4], the system named is MCF-7 cells. Briefly: Ionizing radiation-induced survivin expression, Western blotting. Type of experiment: cell-based. The note with it: MCF-7 cells transfected. Here is the method: as §1
For gene silencing by short interference RNA (siRNA), tumor cell types were transfected with control (VIII) or survivin-derived (S4) double stranded (ds) RNA oligonucleotides (50 nM) using oligofectamine (3 μl/well), as previously described. Beltrami et al., “Acute ablation of survivin uncovers p53-dependent mitotic checkpoint functions and control of mitochondrial apoptosis” J Biol Chem 279:2077-84 (2004). Alternatively, cells were transfected with control or SMART® pool siRNA oligonucleotides to Chk1 or Chk2 (Dharmacon) using oligofectamine. […]

Experiment [5] concerns HCT116 clones #101, #102. Briefly: Conditional induction of apoptosis, propidium iodide staining and flow cytometry. It counts as cell-based. To be noted: doxycycline induction plus adriamycin, adriamycin-sensitive clones. From the text: Breast adenocarcinoma MCF-7, colon adenocarcinoma HCT116, or prostate adenocarcinoma PC3 cells were obtained from the American Type Culture Collection (ATCC, Manassas Va.), and maintained in culture as recommended by the supplier. Wild-type, p53^−/−, or Chk2^−/− HCT116 cells were kindly provided by Dr. B. Vogelstein (Johns Hopkins University, Baltimore, Md.). The rat insulinoma cell line INS-1 stably transfected with mitochondrially-targeted survivin fused to GFP was created as previously described. Dohi et al., “Mitochondrial survivin inhibits apoptosis and promotes tumorigenesis” J Clin Invest 114:1117-1127 (2004). Wild-type HCT116 cells were stably transfected to conditionally express a kinase-dead Asp^347 Asn^347 Chk2 dominant-negative (DN) cDNA under the control of a tetracycline (tet)-regulated promoter (tet-on system, Clontech), as described previously. Grossman et al., “Inhibition of melanoma tumor growth in vivo by survivin targeting” Proc. Natl. Acad. Sci. U.S.A. 98:635-640 (2001). Conditional induction of Chk2-DN was monitored after addition of 2 μg/ml doxycycline (dox).
[…] Alternatively, cells were exposed to ionizing radiation, and analyzed after 24-48 h for propidium iodide staining (red channel) and active caspase-3 activity (CaspaTag®, Intergen®, green channel), by simultaneous multiparametric flow cytometry. […]
Background: A flow cytometer gives signals particle by particle.

Experiment [6] concerns HCT116 cells. As to the kind of experiment: Caspase activity and cell death by multiparametric flow cytometry after DNA damage. Type of experiment: cell-based. The note with it: p53+/+ or p53-/- HCT116 cells, ionizing radiation. Here is the method: For gene silencing by short interference RNA (siRNA), tumor cell types were transfected with control (VIII) or survivin-derived (S4) double stranded (ds) RNA oligonucleotides (50 nM) using oligofectamine (3 μl/well), as previously described. Beltrami et al., “Acute ablation of survivin uncovers p53-dependent mitotic checkpoint functions and control of mitochondrial apoptosis” J Biol Chem 279:2077-84 (2004). Alternatively, cells were transfected with control or SMART® pool siRNA oligonucleotides to Chk1 or Chk2 (Dharmacon) using oligofectamine. A replication-deficient adenovirus expressing Chk2-DN was constructed using the pAd-Easy® system, and used at a multiple of infection (m.o.i.) of 50.
Tumor cell types were treated with or without ionizing radiation, harvested after 24 h, and analyzed for changes in cell cycle distribution by propidium iodide staining and flow cytometry. Alternatively, cells were exposed to ionizing radiation, and analyzed after 24-48 h for propidium iodide staining (red channel) and active caspase-3 activity (CaspaTag®, Intergen®, green channel), by simultaneous multiparametric flow cytometry. Dohi et al., “Mitochondrial survivin inhibits apoptosis and promotes tumorigenesis” J Clin Invest 114:1117-1127 (2004).

The subject of experiment [7] is HCT116 cells. As to the kind of experiment: Colony formation assay in soft agar. It counts as cell-based. To be noted: increasing doses of ionizing radiation. On the procedure: Wild-type HCT116 cells were transduced with a replication deficient adenovirus encoding GFP, Chk2-DN, or Thr^34→Ala^34 survivin DN at an m.o.i. of 50. O'Connor et al., “A p34(cdc2) survival checkpoint in cancer” Cancer Cell 2:43-54 (2002). Twenty-four hours later, approximately 3×10^4 cells were treated with or without ionizing radiation, and suspended in 1.5 ml of DMEM plus 10% FBS and 0.35% bactoagar (BD) in 6-well culture plates containing 1.5 ml of 0.75% agarose in growth medium at the bottom layer. Plates were incubated at 37° C. in 5% CO2 for 2 weeks. Colonies were stained with 0.005% crystal violet (Sigma-Aldrich), and counted using a dissecting microscope under high-power field.

The values below come from US20080125358A1, “Methods for Chk2 inhibitor patient selection” (UNIVERSITY OF MASSACHUSETTS MEDICAL SCHOOL, priority 2006, published 2008).

Sequence of Chk2 (O96017 whole entry): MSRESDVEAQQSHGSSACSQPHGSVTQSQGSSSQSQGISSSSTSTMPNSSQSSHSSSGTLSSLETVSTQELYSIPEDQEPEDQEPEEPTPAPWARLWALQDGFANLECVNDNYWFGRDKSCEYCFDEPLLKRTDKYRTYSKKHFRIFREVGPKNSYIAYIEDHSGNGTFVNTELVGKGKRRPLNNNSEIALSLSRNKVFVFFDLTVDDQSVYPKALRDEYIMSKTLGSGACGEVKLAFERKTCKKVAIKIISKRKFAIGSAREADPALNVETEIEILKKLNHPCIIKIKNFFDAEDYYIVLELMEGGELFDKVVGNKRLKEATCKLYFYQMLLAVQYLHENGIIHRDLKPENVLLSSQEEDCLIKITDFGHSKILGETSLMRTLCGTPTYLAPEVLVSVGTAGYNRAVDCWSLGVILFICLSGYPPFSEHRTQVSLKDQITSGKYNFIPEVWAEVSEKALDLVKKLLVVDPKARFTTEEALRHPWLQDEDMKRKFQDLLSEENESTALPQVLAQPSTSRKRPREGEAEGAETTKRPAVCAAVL

On to `CN[C@@H]1C[C@H]2O[C@@](C)([C@@H]1OC)n1c3ccccc3c3c4c(c5c6ccccc6n2c5c31)C(=O)NC4O` (stereo partly drawn) [UCN-01], for which, in experiment [1], the “confirmation of Chk2 potency” value was “could not be confirmed”.

Take `COc1cccc2c1C(=O)c1c(O)c3c(c(O)c1C2=O)C[C@@](O)(C(=O)CO)C[C@@H]3O[C@H]1C[C@H](N)[C@H](O)[C@H](C)O1` [adriamycin]: in experiment [2], the survivin expression entry is given as “concentration-dependent increase in survivin”. The “effect on tumor growth” value in experiment [3] (adriamycin-resistant clone #202, SCID/beige mice) was “no effect”. Further, the “inhibition of tumor growth” value in experiment [3] (adriamycin-sensitive clone #102, SCID/beige mice, adriamycin 2 mg/kg) is listed as 50-60%.

In the case of “Chk2-DN: kinase-dead Asp347 to Asn347 Chk2 dominant-negative mutant, expressed by transfection, adenovirus or tet-on system”, in experiment [4], the “ionizing radiation-induced survivin expression” value is given as “abolished the increase in survivin expression”. Besides, the induction of apoptosis in experiment [5] was 2- to 4 fold. In addition, the “induction of caspase activity and cell death” value in experiment [6] was “comparable induction of caspase activity and cell death”. In experiment [7], the “colony formation in soft agar” value is recorded as “nearly completely abolished”.

With “Thr^34→Ala^34 survivin-DN: dominant-negative survivin mutant delivered by replication deficient adenovirus”, the “colony formation in soft agar” value in experiment [7] was “nearly completely abolished”.
